Test results published in US10428030B2, “Heterocycle derivatives and their use for the treatment of CNS disorders” (Trillium Therapeutics Inc., priority 2015, dated 2019).

Experiments:
MTLE mice = test: Model of mesial temporal lobe epilepsy (mTLE), hippocampal paroxysmal discharges; format: in vivo, mouse; details: for Effect (% baseline): HPD; for Effect (% baseline) / Mean HPD Counts: mice 4 weeks after intra-hippocampal KA
Text: The MTLE mouse model recapitulates many of the characteristics observed in human patients with temporal lobe epilepsy (TLE). The MTLE mouse is characterized by an initial neurotoxic event, a unilateral intrahippocampal injection of kainic acid (KA) into the dorsal hippocampus, which induces non-convulsive SE lasting several hours. This initial event is followed by a latent phase. Two to three weeks after KA injection, spontaneous recurrent hippocampal paroxysmal discharges (HPD) are only recorded in the epileptic hippocampus and remain stable and stereotyped for the whole life of the animal. These HPDs occur spontaneously about 30-60 times per hour when the animals are in a state of quiet wakefulness, generally last 15-20 sec and are associated with behavioral arrest and/or mild motor automatisms. Adult, male […] mice are stereotaxically injected with kainate (1 nmol in 100 nL) and implanted with 1 bipolar electrode in the dorsal hippocampus, and then allowed to recover for four weeks prior to evaluation in the screening protocol. Using a group size of 4 MTLE mice per dose of investigational compound, the compounds are typically first tested using the 6 Hz 44 mA ED50 value. […] For all acute studies, drug conditions are counter-balanced in MTLE mice over a two week period using a Latin square dosing protocol. Animals are used as their own controls. Digital EEG recordings are performed on freely moving animals for 20 minutes pre-injection (reference period) and 90 minutes post-injection. Data are analyzed for the period of 10 minutes before and 10 minutes after peak time of effect of the investigational compound, as determined from the 6 Hz 44 mA seizure test. The effects of the injected compound are compared to the reference period. Any accompanying effect on animal behavior is noted. Data are presented as the raw number of HPDs during the analyzed 20 min period (10 minutes before and 10 minutes after peak time of effect of compound) for each MTLE mouse, group mean number of HPDs, and effect on suppression as represented by percent of baseline HPD values.

mice = test: Intravenous Metrazol Seizure Threshold Test (i.v. MET); format: in vivo; details: mouse, ip, i.v. Metrazol infusion (FIG. 1)
Protocol: The iv-Met test provides a measure of a test substance's ability to raise or lower seizure threshold. Two doses of the test compound are usually employed in this test, the MES ED50 and the TD50 determined following ip quantification testing in mice. Randomly selected mice are injected intraperitoneally 2 minutes apart with either the vehicle or the two test drug doses, maintaining the same order of dosing until 30 mice have been injected. At the previously determined TPE, 0.5% heparinized Metrazol solution is infused at a constant rate of 0.34 ml/min into a lateral tail vein of an unrestrained mouse. Infusion is by means of a Sage syringe pump (model 341 A) and a 10 ml B-D plastic syringe connected to a length of No 20 P.E. tubing. A 27 gauge stainless steel needle with the hub removed is connected to the tubing and inserted into a vein, bevel side up and secured to the tail by a narrow piece of adhesive tape. For the placement of the needle, the mouse is restrained in a cone shaped device with only the tail exposed. The rate selector is set on 4, and the switch is set at ml/min. […] The time in seconds from the start of the infusion to the appearance of the “first twitch” and the onset of sustained clonus is recorded. […]
The mean and standard error for each of the 3 groups and the significance of the difference between the test groups and the control are calculated.

[1] = tested on: Male, Sprague-Dawley rats; test: Spinal Nerve Injury (SNI) model (neuropathic pain); format: in vivo, rat; details: 60 mg/kg i.p.
Text: The SNI model of neuropathic pain was developed in rats using the procedure described by Decostered and Woolf, Pain 2000, 87: 149-158. Under isoflurane anesthesia, the skin on the lateral surface of the thigh was incised and a section was made directly through the biceps femoris muscle exposing the sciatic nerve and its three terminal branches: the sural, common peroneal and tibial nerves. The common peroneal and the tibial nerves were tight-ligated with 6-0 suture and sectioned distal to the ligation, removing 2-4 mm of the distal nerve stump. Extreme care was taken to avoid any contact with or stretching of the intact sural nerve. Following surgery, hemostasis was confirmed and the muscles were sutured in layers using 4-0 suture and the skin was closed with 4-0 suture and metal clips.
Male, Sprague-Dawley rats were used. Testing of compounds was done 21 days post-operatively. After initial basal readings were taken, the test compound or vehicle was administered. The readings were taken again 30, 60 and 180 min after the compound/vehicle administration. Both the control (uninjured) and the SNI paw were tested. The presence of mechanical allodynia was assessed using the Dynamic Plantar Aesthesiometer (Ugo Basile, Italy) which is a modified version of the Von Frey Hair test. […] A single reading was taken per timepoint. […]
Cold allodynia was assessed by using the acetone test. […]

amygdala kindled rat = test: Amygdala kindled rat model (focal seizures); format: in vivo; details: <100 mg/kg i.p., vs vehicle controls
Text: Amygdala kindling model is an animal model for complex partial seizures, which is the most common type of epilepsy in adults and is often drug resistant. Exemplary compounds of the application were effective in this model.

In the case of `O=C1COc2cc(OCc3ccc(OC(F)F)cc3)ccc2N1` [Compound I(B)], the “Effect (% baseline)” value (MTLE mice; after 80 mg/kg) was 42.0 % baseline, the “Mean HPD Counts” value (MTLE mice; after 80 mg/kg) was 7.25 and the “Effect (% baseline)” value (MTLE mice; after 160 mg/kg) was 17.9 % baseline. The “Mean HPD Counts” value (MTLE mice; after 160 mg/kg) was 4.25, the “effect against spontaneous recurrent hippocampal paroxysmal discharges (HPD)” value (MTLE mice; dose of 125 mg/kg) was “effective” and the “effect on seizure threshold” value (mice) was “dose-dependently increased the seizure threshold”. For the same molecule, the “mechanical allodynia in the denervated paw (Von Frey test)” value [1] was “effective at reducing the mechanical allodynia”, the cold allodynia ([1]; neuropathic rats) was “significantly reduced” and the “suppression of fully kindled (stage 5) seizures” value (amygdala kindled rat) was “dose related suppression of fully kindled (stage 5) seizures”.
